For series [1], the system named is BSU 43639 (Bacillus subtilis (ATCC43639)). In words: Microtitre plate assay, IC90 determination. Type of series: cell-based. To be noted: Bacillus subtilis (ATCC43639).
Series [2] concerns STA RMETH (methicilline resistant Staphylococcus aureus (MRSA), a clinical isolate from the University of Antwerp). In words: Microtitre plate assay, IC90 determination. The format is cell-based.
In series [3] the test system is PAE 27853 (Pseudomonas aeruginosa (ATCC27853)). In words: Microtitre plate assay, IC90 determination. The format is cell-based. Particulars: for IC90 (μg/ml) PAE 27853: Pseudomonas aeruginosa (ATCC27853); for IC90: Pseudomonas aeruginosa, ATCC27853, Pseudomonas aeruginosa (ATCC27853), read-out: IC90 (μg/ml) PAE 27853.
Series [4] deals with EFA 29212 (Enterococcus faecalis (ATCC29212)). In words: Microtitre plate assay, IC90 determination. The format is cell-based. To be noted: for IC90 (μg/ml) EFA 29212: Enterococcus faecalis (ATCC29212); for IC90: Enterococcus faecalis, ATCC29212, Enterococcus faecalis (ATCC29212), read-out: IC90 (μg/ml) EFA 29212.
Series [5] relates to STA 29213 (Staphylococcus aureus (ATCC29213)). In words: Microtitre plate assay, IC90 determination. Type of series: cell-based. Particulars: for IC90 (μg/ml) STA 29213: Staphylococcus aureus (ATCC29213). A digest of the protocol:
(§1)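 Growth-inhibition endpoint: resazurin added 3 h after inoculation, plates incubated overnight, fluorescence at 530/590 nm after 24 h at 37 °C. Inocula of roughly 10–60 CFU per well in Mueller-Hinton medium; compounds titrated five-fold. IC90 reported as μg/ml.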

The test system of series [6] is SPN 6305 (Streptococcus pneumoniae (ATCC6305)). Nature of the series: Microtitre plate assay, IC90 determination. Particulars: for IC90 (μg/ml) SPN 6305: Streptococcus pneumoniae (ATCC6305). The format is cell-based. Put shortly: as §1
In series [7] the test system is LMO 49594 (Listeria monocytogenes (ATCC49594)). Nature of the series: Microtitre plate assay, IC90 determination. The format is cell-based. Particulars: Listeria monocytogenes (ATCC49594).
The test system of series [8] is SPY 8668 (Streptococcus pyogens (ATCC8668)). In words: Microtitre plate assay, IC90 determination. The format is cell-based. To be noted: for IC90: Streptococcus, ATCC8668, Streptococcus pyogens (ATCC8668), read-out: IC90 (μg/ml) SPY 8668; for IC90 (μg/ml) SPY 8668: Streptococcus pyogens (ATCC8668).
Series [9] deals with STA 25923 (Staphylococcus aureus (ATCC25923)). Nature of the series: Microtitre plate assay, IC90 determination. The format is cell-based. Particulars: Staphylococcus aureus (ATCC25923).
Series [10] concerns Staphylococcus aureus. Nature of the series: Time kill assay (broth microdilution method). The format is cell-based. Particulars: S. aureus; for bactericidal activity in time kill assay: observed at 1 and 10 times MIC90. The source says:
(§2) Bactericidal or bacteriostatic activity of the compounds may be determined in a time kill assay using the broth microdilution method*. In a time kill assay on Staphylococcus aureus and methicillin resistant S. aureus (MRSA), the starting inoculum of S. aurues and MRSA is 10^6 CPU/ml in Muller Hinton broth. The antibacterial compounds are used at the concentration of 0.1 to 10 times the MIC (i.e. IC90 as determined in microtitre plate assay). Wells receiving no antibacterial agent constitute the culture growth control. The plates containing the microorganism and the test compounds are incubated at 37° C. After 0, 4, 24, and 48 hrs of incubation samples are removed for determination of viable counts by serial dilution (10^−1 to 10^−6) in sterile PBS and plating (200 μl) on Mueller Hinton agar. The plates are incubated at 37° C. for 24 hours and the number of colonies are determined. Killing curves can be constructed by plotting the log10CFU per ml versus time. A bactericidal effect is commonly defined as 3-log10 decrease in number of CFU per ml as compared to untreated inoculum. The potential carryover effect of the drugs is removed by serial dilutions and counting the colonies at highest dilution used for plating. No carryover effect is observed at the dilution of 10^−2 used for plating. […] Antimicrob. Agents Chemother. 40, 839-845 (1996).

The subject of series [11] is methicillin resistant S. aureus (MRSA). In words: Time kill assay (broth microdilution method). Type of series: cell-based, Staphylococcus aureus.
Source text: as §2

≈ marks a conversion by molar mass, not a printed value.

Take `COc1ccc2cc(C(O)(CCCCN(C)C)C(c3ccccc3)c3cc4cc(Br)ccc4nc3OC)ccc2c1` (single isomer, unassigned) [Compound 5]: the melting point was found to be 96 °C. Moreover, the “IC90 (μg/ml) BSU 43639” value in [1] was determined as 1.9 µg/mL (≈ 3.1 µM). For the same compound, the “IC90 (μg/ml) STA RMETH” value in [2] is 1.9 µg/mL (≈ 3.1 µM). Further, the “IC90 (μg/ml) PAE 27853” value in series [3] is 1.9 µg/mL (≈ 3.1 µM). In addition, in series [4], the “IC90 (μg/ml) EFA 29212” value amounted to 1.9 µg/mL (≈ 3.1 µM). In addition, in [5], the “IC90 (μg/ml) STA 29213” value is 1.9 µg/mL (≈ 3.1 µM). Also, the “IC90 (μg/ml) SPN 6305” value in series [6] amounted to 2.4 µg/mL (≈ 3.91 µM). Also, the “IC90 (μg/ml) LMO 49594” value in series [7] amounted to 1.9 µg/mL (≈ 3.1 µM). In addition, the IC90 in series [8] stood at 1.5 µg/mL (≈ 2.44 µM).

In turn, `COc1nc2ccc(Br)cc2cc1C(c1ccccc1)C(O)(CCCCN(C)C)c1ccc2ccccc2c1` (stereo not drawn) [Compound 17] returned a melting point of 170 °C. Also, the “IC90 (μg/ml) STA 25923” value in series [9] was determined as 2.3 µg/mL (≈ 3.94 µM). In addition, in [1], the “IC90 (μg/ml) BSU 43639” value is 5.2 µg/mL (≈ 8.91 µM). For the same compound, in series [2], the “IC90 (μg/ml) STA RMETH” value was determined as 10.4 µg/mL (≈ 17.8 µM). In addition, in [3], the “IC90 (μg/ml) PAE 27853” value came to 2.3 µg/mL (≈ 3.94 µM). The “IC90 (μg/ml) EFA 29212” value in [4] was found to be 5.2 µg/mL (≈ 8.91 µM). The “IC90 (μg/ml) STA 29213” value in series [5] was 9.3 µg/mL (≈ 15.9 µM). Besides, in [6], the “IC90 (μg/ml) SPN 6305” value stood at 11.6 µg/mL (≈ 19.9 µM). Besides, the “IC90 (μg/ml) LMO 49594” value in series [7] was determined as 5.8 µg/mL (≈ 9.94 µM). Besides, the “IC90 (μg/ml) SPY 8668” value in series [8] amounted to 4.6 µg/mL (≈ 7.88 µM).

Consider `COc1nc2ccc(Br)cc2cc1C(c1ccccc1)C(O)(CCCCN(C)C)c1ccc2ccccc2c1` (stereo not drawn) [Compound 18], for which, in [10], the “MIC (1×MIC; MIC i.e. IC90 as determined in microtitre plate assay)” value is 12 µg/mL (≈ 20.6 µM) and the “bactericidal activity in time kill assay” value was “bactericidal activity”. Also, the “growth of treated samples in time kill assay” value in series [10] (at 0.1 times the MIC) is “followed the control in growth”. For the same compound, the “IC90 (μg/ml) PAE 27853” value in [3] came out at 23.2 µg/mL (≈ 39.8 µM). Besides, the “IC90 (μg/ml) EFA 29212” value in [4] was 46.4 µg/mL (≈ 79.5 µM). Also, the “IC90 (μg/ml) STA 29213” value in series [5] stood at 46.4 µg/mL (≈ 79.5 µM). In [6], the “IC90 (μg/ml) SPN 6305” value worked out at 2.9 µg/mL (≈ 4.97 µM). In series [8], the “IC90 (μg/ml) SPY 8668” value was 11.6 µg/mL (≈ 19.9 µM). In addition, in series [11], the “bactericidal activity in time kill assay” value was “marked bactericidal activity”.

In turn, `COc1nc2ccc(Br)cc2cc1C(c1ccccc1)C(O)(CCCCN(C)C)c1ccc2ccccc2c1` (stereo not drawn) [Compound 22] came in with a melting point of 166 °C. Also, the “IC90 (μg/ml) STA 25923” value in [9] stood at 46.4 µg/mL (≈ 79.5 µM). For the same compound, the “IC90 (μg/ml) BSU 43639” value in series [1] was 58.4 µg/mL (≈ 100 µM). Moreover, in series [2], the “IC90 (μg/ml) STA RMETH” value stood at 58.4 µg/mL (≈ 100 µM). Besides, the “IC90 (μg/ml) PAE 27853” value in [3] came to 4.1 µg/mL (≈ 7.03 µM). In series [4], the “IC90 (μg/ml) EFA 29212” value was 4.1 µg/mL (≈ 7.03 µM). Also, the “IC90 (μg/ml) STA 29213” value in series [5] amounted to 9.3 µg/mL (≈ 15.9 µM). Also, the “IC90 (μg/ml) SPN 6305” value in [6] was determined as 58.4 µg/mL (≈ 100 µM). The “IC90 (μg/ml) LMO 49594” value in series [7] stood at 11.6 µg/mL (≈ 19.9 µM). In addition, in series [8], the “IC90 (μg/ml) SPY 8668” value worked out at 46.4 µg/mL (≈ 79.5 µM).

The compound `COc1nc2ccc(-c3ccco3)cc2cc1C(c1ccccc1)C(O)(CCCCN(C)C)c1ccc2ccccc2c1` (stereo not drawn) [Compound 38] came in with a melting point of 182 °C. The “IC90 (μg/ml) STA RMETH” value in series [2] came out at 2.3 µg/mL (≈ 4.03 µM). Besides, in series [3], the IC90 turned out to be 9.1 µg/mL (≈ 15.9 µM). Further, the IC90 in [4] worked out at 7.2 µg/mL (≈ 12.6 µM). In addition, the “IC90 (μg/ml) STA 29213” value in series [5] was determined as 4.5 µg/mL (≈ 7.88 µM). Moreover, the “IC90 (μg/ml) SPN 6305” value in series [6] was found to be 11.4 µg/mL (≈ 20 µM). In series [8], the IC90 was determined as 9.1 µg/mL (≈ 15.9 µM).

`CNCCCCC(O)(c1ccccc1)C(c1ccccc1)c1cc2cc(Br)ccc2nc1OC` (stereo not drawn) [Compound 53] gave a melting point of 121 °C. Besides, the IC90 in series [2] (Staphylococcus aureus, MRSA, read-out: IC90 (μg/ml) STA RMETH) is 9.2 µg/mL (≈ 17.7 µM). Besides, in series [3], the IC90 stood at 8.23 µg/mL (≈ 15.8 µM). In [4], the IC90 is 1.64 µg/mL (≈ 3.16 µM). Moreover, the IC90 in [5] (Staphylococcus aureus, ATCC29213, Staphylococcus aureus (ATCC29213), read-out: IC90 (μg/ml) STA 29213) was determined as 1.64 µg/mL (≈ 3.16 µM). For the same compound, the IC90 in series [6] (Streptococcus pneumoniae, ATCC6305, Streptococcus pneumoniae (ATCC6305), read-out: IC90 (μg/ml) SPN 6305) came to 0.41 µg/mL (≈ 0.789 µM). In series [8], the IC90 was found to be 1.64 µg/mL (≈ 3.16 µM).

Consider `O=C(O)c1cn(C2CC2)c2cc(N3CCNCC3)c(F)cc2c1=O` [ciprofloxacin, reference compound], for which the entries for the “bactericidal activity in time kill assay” value in [10] and in series [11] were “bactericidal activity” and “no bactericidal effect”, respectively.

These data come from patent publication US8841321B2, “Quinoline derivatives as antibacterial agents” (Janssen Pharmaceutica NV, priority 2005, dated 2014).
